Test results from ChEMBL document CHEMBL1201862, “PubChem BioAssay data set” (2004).
The source made the active and inactive calls.

What was measured:
[1] = HepG2 cell cytotoxicity, dose response, cytotoxicity control, dry powder samples (AID 720568); format: functional, cell-based
[2] = Luminescence Cell-Based Dose Response HTS to Identify Inhibitors of 5'UTR Stem-Loop Driven Prion Protein mRNA Translation in H4 Neuroglioblastoma Cells. [Related pubchem assays: 1827 (Project Summary), 1813 (Primary HTS)]; format: functional
[3] = target: Genome polyprotein (dengue virus type 2, UniProt P29990); assay: Dengue-2 NS5 methyltransferase inhibitors, primary screen, biochemical, confirmation dose response (AID 588689); format: functional
[4] = inhibitors of firefly luciferase expression or activity, dose response, H4 neuroglioma cells, luminescence (AID 1990); format: functional, cell-based
[5] = inhibitors of SNCA 5'UTR-driven reporter translation, confirmation, H4 neuroglioma cells, luminescence (AID 1988); format: functional, cell-based
[6] = target: T1, Mannose-6-phosphate isomerase (Homo sapiens, UniProt P34949); assay: inhibitors of human PMI, primary screen, biochemical, fluorescence intensity, coupled assay (AID 1209)
T1 sequence (P34949 whole entry): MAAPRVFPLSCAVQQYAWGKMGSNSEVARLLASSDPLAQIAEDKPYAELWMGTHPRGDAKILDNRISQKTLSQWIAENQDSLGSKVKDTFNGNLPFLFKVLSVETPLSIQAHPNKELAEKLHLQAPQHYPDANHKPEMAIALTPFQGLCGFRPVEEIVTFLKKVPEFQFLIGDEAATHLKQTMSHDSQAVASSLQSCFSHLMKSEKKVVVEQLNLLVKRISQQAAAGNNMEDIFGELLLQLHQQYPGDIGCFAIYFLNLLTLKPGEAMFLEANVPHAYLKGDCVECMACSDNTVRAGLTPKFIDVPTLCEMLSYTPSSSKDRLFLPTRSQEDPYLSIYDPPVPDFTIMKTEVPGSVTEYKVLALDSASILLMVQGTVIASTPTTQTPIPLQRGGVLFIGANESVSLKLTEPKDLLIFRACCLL

[7] = A Cell-Based Confirmatory Screen for Compounds that Inhibit VEEV, TC-83 (8).; format: functional
[8] = A Cell-Based Confirmatory Screen for Compounds that Inhibit VEEV, TC-83 (7).; format: functional
[9] = Late stage assay provider results from the probe development effort to identify inhibitors of the Plasmodium falciparum M17 Leucine Aminopeptidase (M17LAP): radiolabel-based cell-based dose response assay to identify compounds that inhibit P. falciparum growth in RBCs Set 2.; format: functional
[10] = target: T2, Nuclear receptor subfamily 0 group B member 1 (Homo sapiens, UniProt P51843); format: functional, cell-based;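 also: HEK293T cells transfected with SF-1 and DAX-1 plus StAR promoter luciferase reporter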
T2 sequence (P51843 whole entry): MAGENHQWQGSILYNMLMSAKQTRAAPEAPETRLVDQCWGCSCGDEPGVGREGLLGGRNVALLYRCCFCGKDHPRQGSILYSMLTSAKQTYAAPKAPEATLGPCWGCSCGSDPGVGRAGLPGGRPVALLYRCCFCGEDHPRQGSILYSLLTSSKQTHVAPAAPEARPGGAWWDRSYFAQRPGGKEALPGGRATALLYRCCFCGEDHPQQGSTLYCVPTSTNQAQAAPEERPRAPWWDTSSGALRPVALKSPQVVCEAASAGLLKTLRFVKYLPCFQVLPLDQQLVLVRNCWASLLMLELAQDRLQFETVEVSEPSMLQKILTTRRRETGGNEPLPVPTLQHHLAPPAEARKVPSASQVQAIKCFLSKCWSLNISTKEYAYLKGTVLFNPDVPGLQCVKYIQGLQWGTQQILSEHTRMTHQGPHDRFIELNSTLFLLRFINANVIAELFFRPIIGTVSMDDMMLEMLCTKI

[11] = test system: HEK293; assay: inhibitors of LMP1-driven NF-kB reporter, dose response, cell-based, HEK293, luciferase, cherry-pick (AID 588343); format: functional; conditions: Homo sapiens
[12] = cells; format: functional, cell-based
[13] = test system: HeLa; assay: HeLa cell cytotoxicity, dose response, cytotoxicity control, ATP luminescence, cherry-pick samples (AID 687004); format: functional, cell-based; conditions: Homo sapiens
[14] = target: Endoplasmic reticulum aminopeptidase 1 (Homo sapiens, UniProt Q9NZ08); assay: ERAP1 aminopeptidase inhibitors, dose response, biochemical, cherry-pick, set 2, plate reader (AID 743314)
Sequence of Endoplasmic reticulum aminopeptidase 1 (Q9NZ08 whole entry): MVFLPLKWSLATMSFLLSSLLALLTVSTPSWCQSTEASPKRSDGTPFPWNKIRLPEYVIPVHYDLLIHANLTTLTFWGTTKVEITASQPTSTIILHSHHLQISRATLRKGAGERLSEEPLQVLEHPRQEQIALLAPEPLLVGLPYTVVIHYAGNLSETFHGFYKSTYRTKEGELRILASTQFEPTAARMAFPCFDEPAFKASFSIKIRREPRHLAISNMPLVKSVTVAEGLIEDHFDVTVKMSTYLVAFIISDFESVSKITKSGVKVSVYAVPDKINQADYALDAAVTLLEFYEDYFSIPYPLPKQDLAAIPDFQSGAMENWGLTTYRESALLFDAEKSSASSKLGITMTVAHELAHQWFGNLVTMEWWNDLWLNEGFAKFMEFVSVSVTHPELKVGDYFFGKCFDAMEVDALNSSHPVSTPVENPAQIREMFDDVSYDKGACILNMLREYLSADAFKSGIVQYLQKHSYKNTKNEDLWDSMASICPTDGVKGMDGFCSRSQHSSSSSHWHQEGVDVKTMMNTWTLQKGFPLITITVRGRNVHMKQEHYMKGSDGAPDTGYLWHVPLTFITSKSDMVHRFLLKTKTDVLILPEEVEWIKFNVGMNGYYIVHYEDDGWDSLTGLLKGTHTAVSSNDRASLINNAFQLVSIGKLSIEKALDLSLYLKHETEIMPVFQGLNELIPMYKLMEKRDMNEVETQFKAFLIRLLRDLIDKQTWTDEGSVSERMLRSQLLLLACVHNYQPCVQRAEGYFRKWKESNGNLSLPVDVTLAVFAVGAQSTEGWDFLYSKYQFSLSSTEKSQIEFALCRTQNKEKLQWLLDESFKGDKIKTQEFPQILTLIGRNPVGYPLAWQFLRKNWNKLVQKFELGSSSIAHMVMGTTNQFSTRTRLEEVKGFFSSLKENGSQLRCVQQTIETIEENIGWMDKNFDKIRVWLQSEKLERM

Sequence of Genome polyprotein (P29990 2492-3391 limits assumed): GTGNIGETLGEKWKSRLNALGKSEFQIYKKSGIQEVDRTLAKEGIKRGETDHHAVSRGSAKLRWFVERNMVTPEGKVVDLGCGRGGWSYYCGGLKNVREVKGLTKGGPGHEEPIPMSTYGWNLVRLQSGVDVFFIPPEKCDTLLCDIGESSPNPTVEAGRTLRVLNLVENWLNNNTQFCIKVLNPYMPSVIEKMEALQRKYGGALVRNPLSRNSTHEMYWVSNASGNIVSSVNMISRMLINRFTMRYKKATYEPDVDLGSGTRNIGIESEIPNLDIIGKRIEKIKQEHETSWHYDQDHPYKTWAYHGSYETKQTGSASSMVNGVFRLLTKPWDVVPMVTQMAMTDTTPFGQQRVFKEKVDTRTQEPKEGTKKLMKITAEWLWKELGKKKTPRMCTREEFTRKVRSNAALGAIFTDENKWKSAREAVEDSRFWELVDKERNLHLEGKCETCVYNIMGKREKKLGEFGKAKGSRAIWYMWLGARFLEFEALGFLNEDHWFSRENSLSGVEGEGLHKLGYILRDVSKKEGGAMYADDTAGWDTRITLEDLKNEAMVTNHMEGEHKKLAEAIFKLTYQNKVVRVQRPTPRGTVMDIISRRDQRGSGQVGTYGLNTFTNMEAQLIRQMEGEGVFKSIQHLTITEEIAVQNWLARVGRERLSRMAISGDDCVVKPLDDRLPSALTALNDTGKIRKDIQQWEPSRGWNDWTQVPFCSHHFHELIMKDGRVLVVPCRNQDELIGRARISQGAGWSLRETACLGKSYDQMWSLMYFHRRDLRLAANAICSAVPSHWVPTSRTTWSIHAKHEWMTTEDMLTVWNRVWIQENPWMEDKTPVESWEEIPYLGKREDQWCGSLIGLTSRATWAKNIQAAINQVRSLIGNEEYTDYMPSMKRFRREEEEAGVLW

## O=C1CCNc2cc3ccccc3cc21
[1]
  AC50: 5.57 µM (active)
[2]
  EC50: > 120 µM (not active)
[3]
  IC50: > 100 µM (active)
[4]
  EC50: > 60 µM (not active)
[5]
  EC50: 5.91 µM (active)
[6]
  IC50: 23.2 µM (active)

## COc1ccc(NC(=O)c2cc([N+](=O)[O-])ccc2/N=C2\CN(C)CCN2C)cc1
[7]
  IC50: 37 nM (active)
[8]
  IC50: 40 nM (active)

## CCCCOc1ccc(CC(=O)N(C)O)cc1
[9]
  IC50: 15 µM (inactive)

## C(=Cc1nc2ccccc2o1)c1ccc2c(c1)OCO2
[10]
  IC50: > 92.7 nM (active)
[11]
  AC50: 2.91 µM (active)
[12]
  IC50: > 67.6 µM (inactive)

## C(=Nn1cnnc1)c1ccc2c(c1)CCC2
[13]
  AC50: 28.2 µM (active)

## CCCN1[C@@H]2Cn3c(ccc(/C=C/c4ccccc4)c3=O)[C@H]1[C@@H](C(=O)NCc1ccccn1)[C@@H]2CO
[14]
  AC50: 8.95 µM (active)
